Results reported in patent US20060079453A1, “Hla binding peptides and their uses” (priority 2002, published 2006).
No end group written: not given here.

What was measured:
Assay in all cases: biochemical
Format in all cases: binding
HLA-DR DRB1*1501 (DR15) = HLA-DR DRB1*1501 (DR15) (Homo sapiens, UniProt P01903+P01911); conditions: DRBI *1501
HLA-DR DRB1*0301 (DR3) = HLA-DR DRB1*0301 (DR3) (Homo sapiens, UniProt P01903+P01911, A100K/A102G/A103R/A169T/F55Y/I96L/K41T/L162R/M171V/P40S/Q125H/Q178H/Q39Y/R42S/S66N/T106N/T262R/W38E/Y61H)
HLA-DR DRB1*1101 (DR11) = HLA-DR DRB1*1101 (DR11) (Homo sapiens, UniProt P01903+P01911, A100R/A169T/A87E/I96F/K41T/L162R/M171V/P40S/Q125H/Q178H/Q39Y/Q99D/R42S/S66Y/T262R/V115G/W38E); conditions: DRB1 *1101
HLA-DR DRB4*0101 (DR53) = HLA-DR DRB4*0101 (DR53) (Homo sapiens, UniProt P01903+P13762, G164S); conditions: DRB4 *0101
HLA-DR DRB1*0802 (DR8) = HLA-DR DRB1*0802 (DR8) (Homo sapiens, UniProt P01903+P01911, A100R/A103L/A169T/F76Y/H45Y/I96F/K41T/L162R/M171V/P40S/Q125H/Q178H/Q39Y/Q99D/R218S/R42G/S66Y/V115G/W38E)
HLA-DR DRB1*1302 (DR13) = HLA-DR DRB1*1302 (DR13) (Homo sapiens, UniProt P01903+P01911, A100E/A169T/K41T/L162R/M171V/P40S/Q125H/Q178H/Q39Y/Q99D/R42S/S66N/T262R/V115G/W38E/Y61H); conditions: DRBI *1302
HLA-DR DRB3*0101 (DR52) = HLA-DR DRB3*0101 (DR52) (Homo sapiens, UniProt P01903+P79483)
HLA-DR DRB1*0901 (DR9) = HLA-DR DRB1*0901 (DR9) (Homo sapiens, UniProt P01903+P01911, A100R/A103E/D57H/D86V/F55Y/F60I/F76Y/I96F/K127E/L162R/M171V/P40D/Q125H/Q99R/R33Q/R42F/S133A/S66N/T210M/V115G/W38K/Y107V/Y59G/Y89S); conditions: DRB1 *0901
HLA-DR DRB1*0701 (DR7) = HLA-DR DRB1*0701 (DR7) (Homo sapiens, UniProt P01903+P01911, A100R/A102G/A103Q/D57E/D86V/E43K/F76Y/K127E/L162R/M171V/P40G/Q125H/Q99D/R33Q/R42Y/R54Q/S133A/S66F/T210M/V115G/Y107V/Y59L/Y89S); conditions: DRB1 *0701
HLA-DR DRB1*0101 (DR1) = HLA-DR DRB1*0101 (DR1) (Homo sapiens, UniProt P01903+P01911, A100R/D57E/F55L/F60I/F76Y/I96L/L162R/M171V/P40L/Q125E/R42F/V115G/Y59C); conditions: DRB1 *0101
HLA-DR DRB1*0401 (DR4) = HLA-DR DRB1*0401 (DR4) (Homo sapiens, UniProt P01903+P01911, A100K/A169T/F76Y/I96L/K127E/L162R/M171V/N62H/P40V/Q125Y/R42H/S133A/S149N/S66Y/V115G/V209L/W38E); conditions: DRB1 *0401
HLA-DR DRB5*0101 (DR51) = HLA-DR DRB5*0101 (DR51) (Homo sapiens, UniProt P01903+Q30154); conditions: DRB5 *0101

Chain of HLA-DR DRB1*1302 (DR13) (P01903 26-254 limits assumed, other chains not shown): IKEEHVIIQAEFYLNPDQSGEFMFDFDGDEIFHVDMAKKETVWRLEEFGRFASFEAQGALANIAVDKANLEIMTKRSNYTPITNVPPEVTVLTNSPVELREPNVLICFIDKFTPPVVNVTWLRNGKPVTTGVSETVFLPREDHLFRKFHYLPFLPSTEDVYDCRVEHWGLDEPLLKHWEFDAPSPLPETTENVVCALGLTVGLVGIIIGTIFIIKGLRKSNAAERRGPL
Chain of HLA-DR DRB1*1101 (DR11) (P01903 26-254 limits assumed, other chains not shown): as above
Chain of HLA-DR DRB1*0301 (DR3) (P01903 26-254 limits assumed, other chains not shown): as above

Compound | IC50 (HLA-DR DRB1*1501 (DR15)) [µM] | IC50 (HLA-DR DRB1*0301 (DR3)) [µM] | IC50 (HLA-DR DRB1*1101 (DR11)) [µM] | IC50 (HLA-DR DRB4*0101 (DR53)) [µM] | IC50 (HLA-DR DRB1*0802 (DR8)) [µM] | IC50 (HLA-DR DRB1*1302 (DR13)) [µM] | IC50 (HLA-DR DRB3*0101 (DR52)) [µM] | IC50 (HLA-DR DRB1*0901 (DR9)) [µM] | IC50 (HLA-DR DRB1*0701 (DR7)) [µM] | IC50 (HLA-DR DRB1*0101 (DR1)) [µM] | IC50 (HLA-DR DRB1*0401 (DR4)) [µM] | IC50 (HLA-DR DRB5*0101 (DR51)) [µM]
CC(C)C[C@H](NC(=O)[C@H](CO)NC(=O)[C@H](CC(C)C)NC(=O)[C@H](CO)NC(=O)[C@H](C)NC(=O)[C@H](C)NC(=O)[C@H](CCCNC(=N)N)NC(=O)[C@H](C)NC(=O)[C@H](CC(C)C)NC(=O)[C@H](CC(C)C)NC(=O)[C@H](CC(C)C)NC(=O)[C@@H]1CCCN1C(=O)[C@H](C)N)C(=O)NCC(=O)N[C@@H](Cc1ccccc1)C(=O)O | 0.091 | 56.3 | 0.322 | 0.059 | 0.076 | 0.012 | 13.4 | 0.124 | 0.059 | 0.0084 |  | 
CSCC[C@H](NC(=O)CNC(=O)CNC(=O)[C@H](CCCNC(=N)N)NC(=O)[C@@H](NC(=O)[C@H](CCC(N)=O)NC(=O)[C@H](C)NC(=O)[C@@H](NC(=O)[C@@H](NC(=O)[C@H](CC(C)C)NC(=O)[C@H](Cc1c[nH]cn1)NC(=O)[C@H](Cc1ccc(O)cc1)NC(=O)[C@@H](N)CCCCN)[C@@H](C)O)C(C)C)C(C)C)C(=O)N[C@H](C(=O)N[C@@H](Cc1ccccc1)C(=O)O)C(C)C | 1.22 | 33.7 | 0.859 |  | 1.52 | 0.193 | > 21.9 | 5.86 | 0.228 | 0.137 | 0.806 | 0.086
CC[C@H](C)[C@H](NC(=O)[C@@H](NC(=O)[C@H](Cc1c[nH]cn1)NC(=O)[C@@H](N)CC(C)C)C(C)C)C(=O)N[C@@H](CO)C(=O)N[C@@H](CC(N)=O)C(=O)N[C@@H](CC(=O)O)C(=O)N[C@H](C(=O)N[C@@H](CS)C(=O)N[C@@H](C)C(=O)N[C@@H](CCC(N)=O)C(=O)N[C@H](C(=O)N[C@@H](Cc1c[nH]cn1)C(=O)N1CCC[C@H]1C(=O)N[C@@H](CCC(N)=O)C(=O)O)C(C)C)C(C)C | 22.8 | 8.32 | > 50 | 1.09 | > 123 |  | 1.89 | 32.7 | 17.5 | 0.789 | 0.79 | > 200
CSCC[C@H](NC(=O)[C@H](CC(C)C)NC(=O)[C@@H]1CCCN1C(=O)[C@@H](NC(=O)[C@H](CS)NC(=O)[C@H](CC(=O)O)NC(=O)[C@@H](NC(=O)[C@H](CCCNC(=N)N)NC(=O)[C@H](CC(C)C)NC(=O)[C@@H](NC(=O)[C@H](Cc1ccc(O)cc1)NC(=O)[C@@H](N)CC(N)=O)[C@@H](C)O)C(C)C)[C@@H](C)O)C(=O)N[C@@H](Cc1ccc(O)cc1)C(=O)N[C@@H](CO)C(=O)N[C@@H](CC(C)C)C(=O)O | 5.06 | 0.045 | 7.12 |  | 6.32 | 0.009 | 0.025 | 48.4 | 24.6 | 6.8 | 0.0099 | 66.7
CC[C@H](C)[C@H](NC(=O)[C@@H]1CCCN1)C(=O)N[C@@H](CC(C)C)C(=O)N[C@@H](CC(C)C)C(=O)N[C@@H](Cc1c[nH]c2ccccc12)C(=O)N[C@@H](CCC(N)=O)C(=O)N1CCC[C@H]1C(=O)N[C@H](C(=O)N1CCC[C@H]1C(=O)N[C@H](C(=O)N[C@@H](Cc1c[nH]cn1)C(=O)N[C@H](C(=O)N[C@H](C(=O)N1CCC[C@H]1C(=O)N[C@@H](CC(C)C)C(=O)O)C(C)C)[C@@H](C)O)C(C)C)[C@@H](C)CC | 0.0069 | > 81.8 | 4.04 |  | 21.2 | 0.567 | > 8.83 | 0.168 | 0.046 | 0.044 | 0.258 | 41.5
CC[C@H](C)[C@H](NC(=O)[C@H](Cc1c[nH]c2ccccc12)NC(=O)[C@@H](NC(=O)[C@@H](NC(=O)[C@H](CO)NC(=O)[C@H](CC(C)C)NC(=O)[C@@H](N)[C@@H](C)O)C(C)C)[C@@H](C)O)C(=O)NCC(=O)N[C@@H](C)C(=O)N[C@@H](C)C(=O)N1CCC[C@H]1C(=O)N[C@@H](CC(C)C)C(=O)N[C@H](C(=O)N[C@@H](CC(C)C)C(=O)N[C@@H](CO)C(=O)O)[C@@H](C)CC | 0.097 | > 81.8 | 6.86 |  | 0.84 | 0.642 | 6.03 | 0.0054 | 0.016 | 0.0031 |  | 0.031
CSCC[C@H](NC(=O)[C@H](CC(C)C)NC(=O)[C@H](CCC(N)=O)NC(=O)[C@H](CC(=O)O)NC(=O)[C@H](CC(N)=O)NC(=O)[C@H](CCSC)NC(=O)[C@H](CCSC)NC(=O)[C@H](CCCNC(=N)N)NC(=O)[C@H](CC(C)C)NC(=O)[C@@H](N)C(C)C)C(=O)N[C@@H](Cc1ccccc1)C(=O)N[C@@H](CC(C)C)C(=O)N[C@@H](CCC(=O)O)C(=O)N[C@@H](CCCNC(=N)N)C(=O)N[C@@H](C)C(=O)O | 0.127 | 0.183 | 2.35 | 0.088 | 1.7 | 0.13 | 0.098 | 10.7 |  |  | 0.029 | 0.085
CC(C)C[C@H](NC(=O)CNC(=O)[C@H](Cc1ccccc1)NC(=O)[C@H](CCC(=O)O)NC(=O)[C@H](CCCCN)NC(=O)[C@@H](N)Cc1c[nH]c2ccccc12)C(=O)N[C@@H](CC(=O)O)C(=O)N[C@@H](CO)C(=O)N[C@H](C(=O)N[C@@H](CCC(=O)O)C(=O)N[C@@H](CC(C)C)C(=O)N[C@@H](C)C(=O)N[C@@H](Cc1c[nH]cn1)C(=O)N[C@@H](Cc1ccc(O)cc1)C(=O)N[C@@H](CC(=O)O)C(=O)O)C(C)C | 22.8 | 0.085 | 4.93 | 5.92 | 20 | 8.41 | 0.829 | 7.05 |  | 1.14 | 0.096 | 89.4
CC[C@H](C)[C@H](NC(=O)[C@@H]1CCCN1C(=O)[C@H](CC(N)=O)NC(=O)[C@@H](N)Cc1c[nH]c2ccccc12)C(=O)N[C@@H](CC(C)C)C(=O)N[C@@H](CC(C)C)C(=O)N[C@@H](Cc1c[nH]c2ccccc12)C(=O)N[C@@H](CCC(N)=O)C(=O)N1CCC[C@H]1C(=O)N[C@H](C(=O)N1CCC[C@H]1C(=O)N[C@H](C(=O)N[C@@H](Cc1c[nH]cn1)C(=O)N[C@H](C(=O)N[C@H](C(=O)O)C(C)C)[C@@H](C)O)C(C)C)[C@@H](C)CC | 0.014 | > 81.8 | 19.6 | 0.081 | 115 | 2.26 | > 8.83 | 0.607 |  | 0.208 | 0.695 | ≥ 100
ITDSRVLERYLLEAK | 0.018 | 6.5 | 5.28 |  | 0.967 | > 14.7 | > 42.2 | > 78.9 | 7.5 | 1.57 | 1.3 | 
LTELYFEKGEYFVEM | > 2.37 | 0.592 | > 18.9 | 0.601 | 18.8 | 3.16 | 0.124 | 26.9 |  |  | 8.05 | 6.66
TSITSLYQLENYTN | 0.099 | 81.3 | 1.1 |  | 26.8 | > 17.1 | > 95.2 | 9.95 | 6.06 |  |  | 6.05
TTLLRALGAQKEAIS | 0.089 | 107 | 0.86 |  | 0.652 | 1.51 | 33.3 | 4.61 | 4.28 | 0.019 | 0.339 | 0.021
